Source: publication PMC12191924, “A new naphthalene-based fluorogenic substrate for cytochrome P450 4A11” (Biochemical Journal, 2025)
Entries after “also recorded” stand apart in the source; their conditions may differ. Read-outs that look alike come from different tables or passages of the source.

Legend:
[1] = system: monkey liver microsomes (MLM); assay: MONACRA O-demethylation by monkey liver microsomes, FA-AAA formaldehyde assay; type: in vitro ADME, cynomolgus monkey (Macaca fascicularis); settings: sum of two Michaelis–Menten components
From the text: (§1) To probe if MONACRA can be metabolized to hydroxy-naphthyl acrylic acid (HONACRA) by liver microsomes, we utilized our high-throughput fluorimetric assay of formed formaldehyde with acetoacetanylide (FA-AAA assay, [34]). In our initial experiments, we used cynomolgus monkey (Macaca fascicularis) liver microsomes (MLM).
(§2) Figure 3: O-demethylation of 3-(6-methoxynaphthalen-2-yl)acrylic acid (MONACRA) by monkey liver microsomes (MLM). […] Panel B exemplifies the substrate saturation profile of MONACRA demethylation by MLM (0.98 mg/ml) determined by formed formaldehyde with acetoacetanylide (FA-AAA) assay with 20-min incubation at 30°C. The datasets shown in the figures represent averages of the results of two individual experiments, and the error bars indicate the standard deviations.
(§3) MONACRA demethylation was monitored by quantifying the amount of formed formaldehyde using a high-throughput fluorimetric assay based on the Hantzsch reaction with acetoacetanilide. The plates were prepared as described above. The assays were executed as described earlier, except for monitoring the formation of DPDL by the spectra of its emission with excitation at 395 nm instead of the spectra of excitation, as it was described earlier. This modification of the assay procedure was done because of an ample overlap of the spectra of excitation of MONACRA and HONACRA with that of DPDL.

[2] = as above; type: in vitro ADME, cynomolgus monkey (Macaca fascicularis); settings: cynomolgus monkey, liver microsomes, MLM, FA assay, 20-min incubation at 30°C
From the text: as §1, §2, §3

[3] = system: 16 human microsomal P450 enzymes; assay: Probing MONACRA metabolism by 16 recombinant human P450 enzymes; type: biochemical; settings: CYP1A2, 2A6, 2B6, 2C8, 2C9, 2C19, 2D6, 2E1, 2J2, 3A4, 3A5, 4A11, 4F2, 4F3A, 4F3B, 4F12
Experimental: Based on these observations, we developed a high-throughput automated assay applicable for studying SSPs of MONACRA metabolism by microsomal P450 enzymes. In this procedure, the incubation mixtures containing an NADPH-generating system and various substrate concentrations are placed in a multiwell plate and preincubated at 30°C in a thermostated shaker. The reaction is started by adding microsomal suspension to the final concentration of 0.3–1 mg/ml of microsomal protein or 0.02–0.1 µM of recombinant P450 enzymes in Supersomes. Following the incubation for 20 min at 30°C, the reaction is quenched by adding trichloroacetic acid (final concentration […]). After supplementing the wells with Na-glycine buffer (pH 10.4, final concentration 2.1 M), the plates are subjected to scanning the fluorescence spectra with excitation at 375 nm. This assay, which is described in detail in Materials and Methods, allows reliable detection of the concentrations of HONACRA as low as 0.1 µM.
We used the high-throughput activity assay described above to probe MONACRA metabolism by 16 human microsomal P450 enzymes, namely CYP1A2, CYP2A6, CYP2B6, CYP2C8, CYP2C9, CYP2C19, CYP2D6, CYP2E1, CYP2J2, CYP3A4, CYP3A5, CYP4A11, CYP4F2, CYP4F3A, CYP4F3B, and CYP4F12. […]

Km at 20 min ([2]; read-out: KM, first of two Michaelis–Menten components): 28.4 µM
Km at 20 min ([2]; read-out: KM, second of two Michaelis–Menten components): 260 µM
Compound: COc1ccc2cc(C=CC(=O)O)ccc2c1 [MONACRA, 3-(6-methoxynaphthalen-2-yl)acrylic acid]
total Vmax [1]: 17.2 mol FA per mol of NADPH-cytochrome P450 reductase (CPR) per minute
activity in MONACRA demethylation among 16 recombinant human P450 enzymes [3]: noticeable demethylation activity only with CYP4A11 and CYP1A2; also recorded: detectable activity in MONACRA demethylation was observed only with CYP4A11, CYP1A2, and CYP2C8
